# Reference: ChEMBL document CHEMBL1152075, “Synthesis and SAR of diiodotyrosine-derived glycine-site N-methyl-D-aspartate receptor ligands” (Bioorg Med Chem Lett, 1996)
# Organism: Rattus norvegicus
# Assay: In vitro antagonist potency was determined by blockade of NMDA- induced depolarizations on rat cortical slices
# Type: functional
row,SMILES,Kb
1,N[C@H](Cc1cc(I)c(OCCc2cccc(O)c2)c(I)c1)C(=O)O,2500 nM
2,N[C@H](Cc1cc(I)c(OCCc2ccc(O)cc2)c(I)c1)C(=O)O,2200 nM
3,N[C@H](Cc1cc(I)c(OCCc2ccncc2)c(I)c1)C(=O)O,670 nM

# Biological target: Glutamate NMDA receptor
# Assay: Ability to displace [3H]L-689560 from NMDA receptor glycine site in rat brain membranes
# Type: cell membranes
row,SMILES,IC50
1,N[C@H](Cc1cc(I)c(Oc2ccc(O)cc2)c(I)c1)C(=O)O,4100 nM
2,N[C@H](Cc1cc(I)c(OCCc2cccc(O)c2)c(I)c1)C(=O)O,350 nM
3,N[C@@H](Cc1cc(I)c(OCCc2ccc(O)cc2)c(I)c1)C(=O)O,> 100000 nM
4,N[C@H](Cc1cc(I)c(OCc2ccccc2)c(I)c1)C(=O)O,790 nM
5,CCOc1c(I)cc(C[C@@H](N)C(=O)O)cc1I,1500 nM
6,COC(=O)[C@H](N)Cc1cc(I)c(OCCc2ccc(O)cc2)c(I)c1,100000 nM
7,N[C@H](Cc1ccc(OCCc2ccccc2)cc1)C(=O)O,100000 nM
8,CC(=O)N[C@H](Cc1cc(I)c(OCCc2ccc(O)cc2)c(I)c1)C(=O)O,> 100000 nM
9,NC(Cc1cc(I)c(OCCc2ccc(O)cc2)c(I)c1)C(=O)O (configuration not stated),900 nM
10,N[C@H](Cc1ccc(OCCc2ccccc2)c(I)c1)C(=O)O,7300 nM
11,N[C@H](Cc1cc(I)c(O)c(I)c1)C(=O)O,100000 nM
12,N[C@H](Cc1cc(I)c(Oc2cc(I)c(O)c(I)c2)c(I)c1)C(=O)O [DEXTROTHYROXINE],330 nM
13,N[C@H](Cc1cc(I)c(OCCc2ccncc2)c(I)c1)C(=O)O,460 nM
14,N[C@H](Cc1cc(I)c(OCCc2ccccc2)c(I)c1)C(=O)O,510 nM
